In the test the target is chymotrypsin (Bos taurus, UniProt P00766). Put plainly: Determination of enzyme inhibitory activity against chymotrypsin (substrate AAPFpNA, OD 405 nm). The class given is biochemical. Particulars: for IC50: chymotrypsin 30 nM, AAPFpNA 0.5 mM, pH 7.8, 37° C.; for remaining activity at 0.001 µM: peptide 0.001 μM; for remaining activity at 0.01 µM: peptide 0.01 μM; for remaining activity at 0.1 µM: peptide 0.1 μM; for remaining activity at 0.2 µM: peptide 0.2 μM; for remaining activity at 0.3 µM: peptide 0.3 μM; for remaining activity at 1 µM: peptide 1 μM; for remaining activity at 10 µM: peptide 10 μM; for remaining activity at 100 µM: peptide 100 μM; for remaining activity at 0.0001 µM: peptide 0.0001 μM; for remaining activity at 0.02 µM: peptide 0.02 μM; for remaining activity at 0.04 µM: peptide 0.04 μM; for remaining activity at 0.08 µM: peptide 0.08 μM. As to the method: The substrates N-succinyl-Ala-Ala-Pro-Phe-p-nitroaniline (AAPFpNA) is used in competitive binding reaction to determine the inhibitory activities against α -chymotrypsin. Experiments for a-chymotrypsin was measured in 20 mM CaCl2, 50 mM Tris-HCl buffer (pH 7.8). The concentration of the peptide was measured using optical density (OD) at 280 nm. The Michaelis constant (Km) of the enzyme hydrolysis substrate is calculated from the initial rate of substrate hydrolysis at 405 nm. The absorbance value of the substrate was measured at 405 nm after complete hydrolysis. All data were processed using nonlinear regression.
(1) Added a total 190 μL of reaction buffer (20 mM CaCl2, 50 mM Tris-HCl (pH 7.8)), different concentrations of anti-chymorypsin peptides (CHs) into the pre-cold 96 well plate, followed by preheating at 37° C. for 5 min and centrifugated at 500 rpm for 1 min and allowed to stand for 4 minutes. Then added 8 μL of 750 nM chymotrypsin and incubated at 37° C. for 10 min, and centrifugated at 500 rpm for 1 min and allowed to stand for 9 minutes. Finally, added 2 μL of 50 mM AAPFpNA, and mixed by centrifugation at 500 rpm for 1 min. The plate was incubated at 37° C. for 90 min, and the absorbance value at 405 nm was measured. Three repetitions were made, and only reaction buffer and substrate were added in the blank control as the minimum absorption value (Min OD 405 nm); Only reaction buffer, enzyme and substrate were added in the negative control as the maximum absorption value (Max OD 405 nm).
(2) In the 200 μL of reaction system, the final concentrations of chymotrypsin and AAPFpNA were 30 nM and 0.5 mM, respectively.
Plotted the residual activity of enzyme with […] to obtain the half inhibitory concentration (IC50) of anti-chymorypsin peptides (CHs). Then, substituted it into the formula […]/(1+S/Km) (S, IC50, and Km were substrate concentration, half inhibitory concentration, and Michaelis constant, respectively) to obtain the inhibition constant Ki of anti-chymorypsin peptides (CHs).

Setting [1] is: read-out: Residual activity of chymotrypsin.

Molecules are shown by their SMILES. Where a SMILES comes first, the peptide text is derived from it. Bridges are numbered along the chain shown (N, C = ends).

On to `CC[C@H](C)[C@@H]1NC(=O)[C@@H]2CCCN2C(=O)[C@@H]2CCCN2C(=O)[C@H]([C@@H](C)CC)NC(=O)[C@H](CO)NC(=O)[C@H](Cc2ccc(O)cc2)NC(=O)[C@H]([C@@H](C)O)NC(=O)[C@H](C)NC(=O)[C@H](CCCNC(=N)N)NC(=O)[C@H](CCCCN)NC(=O)[C@@H](N)CSSC[C@@H](C(=O)N[C@@H](Cc2ccccc2)C(=O)O)NC1=O` [CH69] (H-CKRATYSIPPICF-OH; disulfide 1-12; C-terminus assumed), for which affinity was put at a Ki of 130 nM and half-maximal inhibition (IC50) required 300 nM. In addition, under setting [1], the remaining activity at 0.001 µM was found to be 101.7 ± 0.3%, the remaining activity at 0.01 µM came to 101 ± 0.2%, the remaining activity at 0.1 µM worked out at 100 ± 2.5% and the remaining activity at 0.2 µM was found to be 78 ± 4%. Moreover, under setting [1], the remaining activity at 0.3 µM worked out at 51.5 ± 5.8%, the remaining activity at 1 µM was determined as 12.1 ± 1.1%, the remaining activity at 10 µM was found to be 1.3 ± 0.6% and the remaining activity at 100 µM was determined as 0%. For the setting “peptide 0.5 μM, read-out: Residual activity of chymotrypsin”, the remaining activity at 0.5 µM amounted to 20.1 ± 6.1%.
Take `CC[C@H](C)[C@@H]1NC(=O)[C@H](CO)NC(=O)[C@H](Cc2ccccc2)NC(=O)[C@H]([C@@H](C)O)NC(=O)[C@@H](NC(=O)[C@@H](N)Cc2ccccc2)CSSC[C@@H](C(=O)N[C@@H](Cc2ccc(O)cc2)C(=O)NCC(=O)O)NC(=O)[C@H](CCC(N)=O)NC(=O)[C@@H]2CCCN2C(=O)[C@@H]2CCCN2C1=O` [CH5] (H-FCTFSIPPQCYG-OH; disulfide 2-10; C-terminus assumed): the affinity corresponds to a Ki of 80 nM and the IC50 (commonly the concentration at which inhibition is half-maximal) came out at 190 nM. Besides, under setting [1], the remaining activity at 0.0001 µM came out at 96.7 ± 9.3%, the remaining activity at 0.001 µM worked out at 113 ± 2.4%, the remaining activity at 0.01 µM was found to be 102 ± 3.7% and the remaining activity at 0.3 µM was determined as 41.9 ± 5.7%. Moreover, under setting [1], the remaining activity at 1 µM came to 11.3 ± 1.5%, the remaining activity at 10 µM is 0.3% and the remaining activity at 100 µM came to 0.3 ± 0.2%. The remaining activity at 0.15 µM (peptide 0.15 μM, read-out: Residual activity of chymotrypsin) was 58.3 ± 2.3%. Also, the remaining activity at 0.6 µM (peptide 0.6 μM, read-out: Residual activity of chymotrypsin) was found to be 19 ± 0.8%.
As to `CC[C@H](C)[C@@H]1NC(=O)[C@@H]2CCCN2C(=O)[C@@H]2CCCN2C(=O)[C@H]([C@@H](C)CC)NC(=O)[C@H](CO)NC(=O)[C@H](Cc2ccccc2)NC(=O)[C@H]([C@@H](C)O)NC(=O)[C@H](C)NC(=O)[C@H](CCCNC(=N)N)NC(=O)CNC(=O)[C@@H](N)CSSC[C@@H](C(=O)N[C@@H](Cc2ccccc2)C(=O)O)NC1=O` [CH71] (H-CGRATFSIPPICF-OH; disulfide 1-12; C-terminus assumed), the inhibition constant (Ki) – broadly, the dissociation constant of the complex between target and ligand, obtained from inhibition or displacement – is 180 nM; the IC50 came out at 410 nM. Under setting [1], the remaining activity at 0.001 µM was determined as 101.4 ± 0.6%, the remaining activity at 0.01 µM came to 100.6 ± 1%, the remaining activity at 0.1 µM is 100.3 ± 0.5% and the remaining activity at 0.2 µM was determined as 81.7 ± 3.3%. Further, under setting [1], the remaining activity at 1 µM was 20.7 ± 1.3%, the remaining activity at 10 µM was 0.8 ± 0.2% and the remaining activity at 100 µM was found to be 0.1 ± 0.1%. In addition, the remaining activity at 0.4 µM (peptide 0.4 μM, read-out: Residual activity of chymotrypsin) came out at 49.9 ± 6.6%. Further, the remaining activity at 0.8 µM (peptide 0.8 μM, read-out: Residual activity of chymotrypsin) worked out at 23.6 ± 1.5%.
The compound `CC[C@H](C)[C@@H]1NC(=O)[C@@H]2CCCN2C(=O)[C@@H]2CCCN2C(=O)[C@H]([C@@H](C)CC)NC(=O)[C@H](CO)NC(=O)[C@H](Cc2ccc(O)cc2)NC(=O)[C@H]([C@@H](C)O)NC(=O)[C@@H](NC(=O)[C@H](CCCNC(=N)N)NC(=O)CN)CSSC[C@@H](C(=O)N[C@@H](Cc2ccccc2)C(=O)N2CCC[C@H]2C(=O)N[C@@H](CC(=O)O)C(=O)O)NC1=O` [CH55] (H-GRCTYSIPPICFPD-OH; disulfide 3-11; C-terminus assumed) registered a Ki of 8.6 nM and an IC50 of 20 nM. Under setting [1], the remaining activity at 0.0001 µM is 102.1 ± 1%, the remaining activity at 0.001 µM was 101.6 ± 0.9%, the remaining activity at 0.02 µM was 45.8 ± 10% and the remaining activity at 0.04 µM was 21.8 ± 4.2%. Besides, under setting [1], the remaining activity at 0.08 µM was determined as 11.6 ± 1.2%, the remaining activity at 0.1 µM turned out to be 8 ± 2.4%, the remaining activity at 1 µM stood at 0.9 ± 0.1% and the remaining activity at 10 µM came out at 0.1%. Moreover, under “peptide 0.015 μM, read-out: Residual activity of chymotrypsin”, the remaining activity at 0.015 µM came out at 68.1 ± 3.7%.
As for `CC[C@H](C)[C@@H]1NC(=O)[C@@H]2CCCN2C(=O)[C@@H]2CCCN2C(=O)[C@H]([C@@H](C)CC)NC(=O)[C@H](CO)NC(=O)[C@H](Cc2ccc(O)cc2)NC(=O)[C@H]([C@@H](C)O)NC(=O)[C@@H](NC(=O)[C@@H](N)[C@@H](C)O)CSSC[C@@H](C(=O)N[C@@H](CC(N)=O)C(=O)O)NC1=O` [CH63] (H-TCTYSIPPICN-OH; disulfide 2-10; C-terminus assumed), the inhibition constant Ki worked out at 1320 nM and it took 3050 nM to reach half-maximal inhibition (IC50).
Regarding `CC[C@H](C)[C@@H]1NC(=O)[C@@H]2CCCN2C(=O)[C@@H]2CCCN2C(=O)[C@H]([C@@H](C)CC)NC(=O)[C@H](CO)NC(=O)[C@H](Cc2ccc(O)cc2)NC(=O)[C@H]([C@@H](C)O)NC(=O)[C@H](C)NC(=O)[C@H](CCCNC(=N)N)NC(=O)CNC(=O)[C@@H](N)CSSC[C@@H](C(=O)N[C@@H](Cc2ccccc2)C(=O)N2CCC[C@H]2C(=O)O)NC1=O` [CH66] (H-CGRATYSIPPICFP-OH; disulfide 1-12; C-terminus assumed), the inhibition constant (Ki) stood at 280 nM and the IC50 is 650 nM.
Consider `CC[C@H](C)[C@@H]1NC(=O)[C@@H]2CCCN2C(=O)[C@@H]2CCCN2C(=O)[C@H]([C@@H](C)CC)NC(=O)[C@H](CO)NC(=O)[C@H](Cc2ccccc2)NC(=O)[C@H]([C@@H](C)O)NC(=O)[C@@H](NC(=O)[C@@H](NC(=O)CN)[C@@H](C)O)CSSC[C@@H](C(=O)N[C@@H](CC(N)=O)C(=O)N2CCC[C@H]2C(=O)N[C@@H](CC(N)=O)C(=O)O)NC1=O` [CH25] (H-GTCTFSIPPICNPN-OH; disulfide 3-11; C-terminus assumed), for which, under setting [1], the remaining activity at 0.0001 µM was found to be 99.7 ± 1%, the remaining activity at 0.001 µM came to 100 ± 1.9%, the remaining activity at 0.01 µM is 96.9 ± 1.4% and the remaining activity at 0.2 µM turned out to be 63.1 ± 4.1%. Further, under setting [1], the remaining activity at 0.3 µM was determined as 44.6 ± 4.9%, the remaining activity at 1 µM was 15.4 ± 1.2%, the remaining activity at 10 µM amounted to 1.5 ± 0.3% and the remaining activity at 100 µM amounted to 0.2 ± 0.2%. For the same compound, where the note is “peptide 1000 μM, read-out: Residual activity of chymotrypsin”, the remaining activity at 1000 µM amounted to 0.2 ± 0.1%.
The compound `CC[C@H](C)[C@@H]1NC(=O)[C@@H]2CCCN2C(=O)[C@@H]2CCCN2C(=O)[C@H]([C@@H](C)CC)NC(=O)[C@H](CO)NC(=O)[C@H](Cc2ccc(O)cc2)NC(=O)[C@H]([C@@H](C)O)NC(=O)[C@@H](NC(=O)[C@H](CCCNC(=N)N)NC(=O)CN)CSSC[C@@H](C(=O)N[C@@H](Cc2ccccc2)C(=O)O)NC1=O` [CH57] (H-GRCTYSIPPICF-OH; disulfide 3-11; C-terminus assumed) showed an inhibition constant (Ki) of 20 nM and a half-inhibitory concentration (IC50) of 40 nM. For the same compound, under setting [1], the remaining activity at 0.0001 µM amounted to 99 ± 1.3%, the remaining activity at 0.001 µM was 100.2 ± 0.3%, the remaining activity at 0.01 µM was 98 ± 5.1% and the remaining activity at 0.02 µM worked out at 66 ± 7.5%. Also, under setting [1], the remaining activity at 0.04 µM amounted to 48.4 ± 5.8%, the remaining activity at 0.08 µM was 19.1 ± 4.6%, the remaining activity at 1 µM was found to be 0.9 ± 0.3% and the remaining activity at 10 µM was -0.2 ± 0.2%. Further, where the note is “peptide 0.06 μM, read-out: Residual activity of chymotrypsin”, the remaining activity at 0.06 µM was 38.1 ± 7.9%.
Consider `CC[C@H](C)[C@@H]1NC(=O)[C@@H]2CCCN2C(=O)[C@@H]2CCCN2C(=O)[C@H]([C@@H](C)CC)NC(=O)[C@H](CO)NC(=O)[C@H](Cc2ccc(O)cc2)NC(=O)[C@H]([C@@H](C)O)NC(=O)[C@@H](NC(=O)[C@H](CCCNC(=N)N)NC(=O)CN)CSSC[C@@H](C(=O)N[C@@H](Cc2ccccc2)C(=O)N2CCC[C@H]2C(=O)O)NC1=O` [CH56] (H-GRCTYSIPPICFP-OH; disulfide 3-11; C-terminus assumed), for which the inhibition constant (Ki) turned out to be 270 nM and the midpoint of inhibition, the IC50, lay at 620 nM. Besides, the “IC50 reduced (fold)” value (relative to CH55) was determined as 30 times.

Values taken from patent publication US20260242438A1 (INSTITUTE OF MATERIA MEDICA, CHINESE ACADEMY OF MEDICAL …, priority 2022, published 2026).
